According to patent publication US20240092758A1, “IMIDAZOLO INDAZOLE COMPOUNDS AS JAK INHIBITORS” (Theravance Biopharma R&D IP, LLC, priority 2021, published 2024):

Assays:
[1] = target: JAK2 (Homo sapiens (Human), UniProt O60674); assay: Biochemical JAK kinase assay (LanthaScreen), JAK2; conditions: for Ki: read-out: JAK2 pKi (converted)
Method in brief: (§1)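 LanthaScreen format: phospho-STAT1 (pTyr701) detected with 2 nM Tb antibody after 10 mM EDTA quench. Kinase step used Km-level ATP and 200 nM STAT1 peptide, 1 h at ambient after 1 h pre-incubation. Inhibition fitted to IC50, reported as pKi.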

[2] = target: JAK1 (Homo sapiens (Human), UniProt P23458); assay: Biochemical JAK kinase assay (LanthaScreen), JAK1; conditions: for Ki: read-out: JAK1 pKi (converted)
Method in brief: as §1

[3] = target: TYK2 (Homo sapiens (Human), UniProt P29597); assay: Biochemical JAK kinase assay (LanthaScreen), Tyk2; conditions: read-out: Tyk2 pKi (converted)
Experimental: (§2) A panel of four LanthaScreen JAK biochemical assays (JAK1, 2, 3 and Tyk2) were carried in a common kinase reaction buffer (50 mM HEPES, pH 7.5, 0.01% Brij-35, 10 mM MgCl2, and 1 mM EGTA). Recombinant GST-tagged JAK enzymes and a GFP-tagged STAT1 peptide substrate were obtained from Life Technologies.
(§3) Serially diluted compounds were pre-incubated with each of the four JAK enzymes and the substrate in white 384-well microplates (Corning) at ambient temperature for 1 h. ATP was subsequently added to initiate the kinase reactions in 10 μL total volume, with 1% DMSO. The final enzyme concentrations for JAK1, 2, 3 and Tyk2 are 4.2 nM, 0.1 nM, 1 nM, and 0.25 nM respectively; the corresponding Km ATP concentrations used are 25 μM, 3 μM, 1.6 μM, and 10 μM; while the substrate concentration is 200 nM for all four assays. Kinase reactions were allowed to proceed for 1 hour at ambient temperature before a 10 μL preparation of EDTA (10 mM final concentration) and Tb-anti-pSTAT1 (pTyr701) antibody (Life Technologies, 2 nM final concentration) in TR-FRET dilution buffer (Life Technologies) was added. The plates were allowed to incubate at ambient temperature for 1 h before being read on the EnVision reader (Perkin Elmer). Emission ratio signals (520 nm/495 nm) were recorded and utilized to calculate the percent inhibition values based on DMSO and background controls.
(§4) For dose-response analysis, percent inhibition data were plotted vs. compound concentrations, and IC50 values were determined from a 4-parameter robust fit model with the Prism software (GraphPad Software). Results were expressed as pIC50 (negative logarithm of IC50) and subsequently converted to pKi (negative logarithm of dissociation constant, Ki) using the Cheng-Prusoff equation.
(§5) Test compounds having a lower Ki value or higher pKi value in the four JAK assays show greater inhibition of JAK activity.

[4] = target: JAK3 (Homo sapiens (Human), UniProt P52333); assay: Biochemical JAK kinase assay (LanthaScreen), JAK3; conditions: read-out: JAK3 pKi (converted)
Experimental: as §2, §3, §4, §5

[5] = system: IL-13 induced STAT6 phosphorylation in BEAS-2B human lung epithelial cells; assay: Cellular JAKI potency assay (BEAS-2B); assay type: cell-based; conditions: Homo sapiens, BEAS-2B, BEAS-2B cells, read-out: BEAS2B pIC50 (converted)
Method in brief: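 BEAS-2B cells were preincubated with compound (0.1% DMSO) in HBSS/HEPES/BSA for 1 h at 37 °C, then stimulated with IL-13 (80 ng/mL before addition) for 30 min. After lysis, pSTAT6 (Tyr641) was quantified by AlphaLISA SureFire; IC50 from a 4-parameter fit of percent inhibition, reported as pIC50.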

Chain of JAK3 (P52333 whole entry): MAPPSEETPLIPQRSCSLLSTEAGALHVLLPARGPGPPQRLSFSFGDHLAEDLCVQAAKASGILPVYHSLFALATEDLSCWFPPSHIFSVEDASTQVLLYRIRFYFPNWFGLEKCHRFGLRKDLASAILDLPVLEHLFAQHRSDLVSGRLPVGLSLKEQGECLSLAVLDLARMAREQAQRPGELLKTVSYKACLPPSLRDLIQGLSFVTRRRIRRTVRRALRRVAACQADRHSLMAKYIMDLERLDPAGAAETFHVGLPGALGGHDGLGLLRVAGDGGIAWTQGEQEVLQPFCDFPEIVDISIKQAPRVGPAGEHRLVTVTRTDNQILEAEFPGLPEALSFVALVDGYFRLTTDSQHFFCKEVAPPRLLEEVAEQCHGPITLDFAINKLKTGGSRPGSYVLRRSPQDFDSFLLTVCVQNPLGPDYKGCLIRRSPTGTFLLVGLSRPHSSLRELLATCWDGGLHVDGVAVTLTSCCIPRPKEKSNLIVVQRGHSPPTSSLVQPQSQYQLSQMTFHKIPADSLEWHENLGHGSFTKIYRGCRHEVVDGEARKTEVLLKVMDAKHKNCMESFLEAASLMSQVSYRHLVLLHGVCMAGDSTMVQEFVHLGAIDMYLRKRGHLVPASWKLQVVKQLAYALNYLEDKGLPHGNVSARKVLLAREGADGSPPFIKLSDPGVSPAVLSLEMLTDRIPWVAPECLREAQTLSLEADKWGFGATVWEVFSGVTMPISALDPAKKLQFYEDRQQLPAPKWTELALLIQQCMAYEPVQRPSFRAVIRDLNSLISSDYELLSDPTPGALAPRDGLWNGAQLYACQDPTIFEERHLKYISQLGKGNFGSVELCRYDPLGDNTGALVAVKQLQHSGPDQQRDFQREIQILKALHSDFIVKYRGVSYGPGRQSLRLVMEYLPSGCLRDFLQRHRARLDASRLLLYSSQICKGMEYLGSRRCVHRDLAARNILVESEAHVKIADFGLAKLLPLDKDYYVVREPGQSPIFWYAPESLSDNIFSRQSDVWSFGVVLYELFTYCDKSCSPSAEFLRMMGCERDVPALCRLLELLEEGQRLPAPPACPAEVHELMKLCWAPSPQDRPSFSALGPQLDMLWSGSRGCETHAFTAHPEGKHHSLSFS
Chain of JAK2 (O60674 whole entry): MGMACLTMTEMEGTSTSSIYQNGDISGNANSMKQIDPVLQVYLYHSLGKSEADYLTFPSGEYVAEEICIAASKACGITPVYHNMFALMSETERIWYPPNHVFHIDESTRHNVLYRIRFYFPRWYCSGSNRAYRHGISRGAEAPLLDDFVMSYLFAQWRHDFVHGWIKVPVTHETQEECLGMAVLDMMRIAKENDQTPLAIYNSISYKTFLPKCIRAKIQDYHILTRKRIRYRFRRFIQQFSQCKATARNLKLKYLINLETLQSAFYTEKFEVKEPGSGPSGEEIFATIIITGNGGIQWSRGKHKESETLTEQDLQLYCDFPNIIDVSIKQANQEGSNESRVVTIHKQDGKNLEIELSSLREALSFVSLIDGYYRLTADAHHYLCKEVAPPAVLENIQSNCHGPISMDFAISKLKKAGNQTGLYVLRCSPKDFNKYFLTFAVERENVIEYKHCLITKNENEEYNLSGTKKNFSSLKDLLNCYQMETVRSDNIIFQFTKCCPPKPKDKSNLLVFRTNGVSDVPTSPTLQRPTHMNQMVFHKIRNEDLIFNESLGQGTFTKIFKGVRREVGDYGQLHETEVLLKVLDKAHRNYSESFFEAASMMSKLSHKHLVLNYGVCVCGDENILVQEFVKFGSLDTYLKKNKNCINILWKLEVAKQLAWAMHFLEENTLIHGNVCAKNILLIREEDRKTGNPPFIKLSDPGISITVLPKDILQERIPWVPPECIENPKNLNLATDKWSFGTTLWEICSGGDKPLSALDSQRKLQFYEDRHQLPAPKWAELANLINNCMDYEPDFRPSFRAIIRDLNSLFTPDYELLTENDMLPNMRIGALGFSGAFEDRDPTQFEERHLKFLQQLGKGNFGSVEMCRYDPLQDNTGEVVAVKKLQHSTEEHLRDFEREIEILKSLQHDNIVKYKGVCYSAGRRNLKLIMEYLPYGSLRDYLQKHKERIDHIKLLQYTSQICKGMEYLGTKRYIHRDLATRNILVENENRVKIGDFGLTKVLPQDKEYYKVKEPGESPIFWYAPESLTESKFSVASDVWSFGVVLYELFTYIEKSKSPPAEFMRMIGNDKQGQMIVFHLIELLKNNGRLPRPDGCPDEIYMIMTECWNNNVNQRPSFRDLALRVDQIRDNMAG
Chain of TYK2 (P29597 whole entry): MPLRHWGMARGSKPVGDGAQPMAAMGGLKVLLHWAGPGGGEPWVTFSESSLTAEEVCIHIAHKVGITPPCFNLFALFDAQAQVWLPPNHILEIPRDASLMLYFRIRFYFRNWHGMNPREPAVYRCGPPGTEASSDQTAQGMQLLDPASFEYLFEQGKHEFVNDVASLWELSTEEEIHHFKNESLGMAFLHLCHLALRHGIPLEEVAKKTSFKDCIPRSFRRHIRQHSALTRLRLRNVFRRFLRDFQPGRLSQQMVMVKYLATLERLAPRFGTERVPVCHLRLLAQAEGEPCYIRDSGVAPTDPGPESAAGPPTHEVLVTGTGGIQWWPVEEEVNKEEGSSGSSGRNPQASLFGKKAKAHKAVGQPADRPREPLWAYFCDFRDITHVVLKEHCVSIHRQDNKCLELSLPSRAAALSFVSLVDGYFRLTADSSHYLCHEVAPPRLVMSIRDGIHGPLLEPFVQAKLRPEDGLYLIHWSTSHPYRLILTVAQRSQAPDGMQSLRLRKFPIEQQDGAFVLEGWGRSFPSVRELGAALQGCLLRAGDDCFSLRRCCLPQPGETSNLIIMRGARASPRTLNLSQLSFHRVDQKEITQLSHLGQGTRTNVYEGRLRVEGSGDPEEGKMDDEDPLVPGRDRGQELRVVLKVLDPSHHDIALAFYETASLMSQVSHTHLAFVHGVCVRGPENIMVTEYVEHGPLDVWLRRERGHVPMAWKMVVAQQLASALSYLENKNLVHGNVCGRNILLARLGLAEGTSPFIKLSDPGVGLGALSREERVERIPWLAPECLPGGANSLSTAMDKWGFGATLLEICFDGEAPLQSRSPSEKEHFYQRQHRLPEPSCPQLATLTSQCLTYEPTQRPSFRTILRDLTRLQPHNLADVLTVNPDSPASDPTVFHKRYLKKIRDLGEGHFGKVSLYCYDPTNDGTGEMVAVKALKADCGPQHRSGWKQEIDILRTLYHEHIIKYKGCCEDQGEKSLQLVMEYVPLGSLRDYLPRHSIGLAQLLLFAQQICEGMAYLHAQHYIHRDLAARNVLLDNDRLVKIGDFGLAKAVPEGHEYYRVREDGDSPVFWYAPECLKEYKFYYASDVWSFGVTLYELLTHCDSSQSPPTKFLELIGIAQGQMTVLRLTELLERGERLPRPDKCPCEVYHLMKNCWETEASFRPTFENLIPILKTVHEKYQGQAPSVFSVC
Chain of JAK1 (P23458 whole entry): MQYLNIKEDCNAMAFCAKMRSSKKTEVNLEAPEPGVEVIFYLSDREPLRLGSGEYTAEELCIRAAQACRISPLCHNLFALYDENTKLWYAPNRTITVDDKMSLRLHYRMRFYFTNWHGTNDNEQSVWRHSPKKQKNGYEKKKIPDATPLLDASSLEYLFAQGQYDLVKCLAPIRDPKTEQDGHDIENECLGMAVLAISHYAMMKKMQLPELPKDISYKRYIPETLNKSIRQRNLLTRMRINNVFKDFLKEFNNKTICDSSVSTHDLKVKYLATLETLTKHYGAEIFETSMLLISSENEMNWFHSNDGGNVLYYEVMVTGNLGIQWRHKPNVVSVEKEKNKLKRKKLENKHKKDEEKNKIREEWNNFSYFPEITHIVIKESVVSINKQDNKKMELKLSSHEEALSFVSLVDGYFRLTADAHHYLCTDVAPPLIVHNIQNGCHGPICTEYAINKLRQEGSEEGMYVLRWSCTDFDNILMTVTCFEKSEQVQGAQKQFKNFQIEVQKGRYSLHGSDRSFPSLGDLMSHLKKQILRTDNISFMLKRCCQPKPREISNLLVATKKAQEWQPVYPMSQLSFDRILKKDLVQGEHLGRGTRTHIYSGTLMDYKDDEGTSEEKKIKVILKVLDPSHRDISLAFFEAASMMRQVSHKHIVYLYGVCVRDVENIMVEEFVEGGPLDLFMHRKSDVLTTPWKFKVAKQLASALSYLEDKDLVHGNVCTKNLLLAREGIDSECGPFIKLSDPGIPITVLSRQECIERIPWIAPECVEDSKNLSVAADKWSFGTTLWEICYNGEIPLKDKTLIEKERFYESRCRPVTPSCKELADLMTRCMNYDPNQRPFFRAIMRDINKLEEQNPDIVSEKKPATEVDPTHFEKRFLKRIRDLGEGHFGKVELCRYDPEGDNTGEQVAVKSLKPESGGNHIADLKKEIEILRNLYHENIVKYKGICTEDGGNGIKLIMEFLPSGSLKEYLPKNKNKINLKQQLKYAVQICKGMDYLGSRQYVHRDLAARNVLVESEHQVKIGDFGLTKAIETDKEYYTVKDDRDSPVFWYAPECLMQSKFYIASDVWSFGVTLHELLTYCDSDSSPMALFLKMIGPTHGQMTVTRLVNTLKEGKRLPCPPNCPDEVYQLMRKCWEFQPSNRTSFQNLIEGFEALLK

| SMILES | JAK2 pKi [1] | Ki [2] [nM] | Ki [3] [nM] | Ki [4] [nM] | IC50 [5] [nM] | Ki [1] [nM] | JAK1 pKi [2] |
| --- | --- | --- | --- | --- | --- | --- | --- |
| CCc1cc(O)ccc1-c1ccc2c(-c3nc(C4=CCN(C[C@@H]5CCN5)CC4)c[nH]3)n[nH]c2c1F [Example 390] | A (A represents a pKi value ≥10 (Ki≤0.1 nM)) | 0.1 to 1 | 1 to 10 | 0.1 to 1 | 100 to 316 | – | – |
| CCc1cc(O)ccc1-c1ccc2c(-c3nc(C4=CCN(C(=O)CN)C4)c[nH]3)n[nH]c2c1F [Example 173] | A (A represents a pKi value ≥10 (Ki≤0.1 nM)) | 0.1 to 1 | 1 to 10 | 0.1 to 1 | 31.6 to 100 | – | – |
| CCc1cc(O)ccc1-c1ccc2c(-c3nc(C4=CCN(C(=O)CN)CC4)c[nH]3)n[nH]c2c1 [Example 152] | A (A represents a pKi value ≥10 (Ki≤0.1 nM)) | 0.1 to 1 | 1 to 10 | 0.1 to 1 | 10 to 31.6 | – | – |
| CCc1cc(O)ccc1-c1ccc2c(-c3nc(C4=CCCN(C)C4)c[nH]3)n[nH]c2c1F [Example 29] | – | 0.1 to 1 | 1 to 10 | 0.1 to 1 | 3.16 to 10 | 0.1 to 1 | – |
| CCc1cc(O)ccc1-c1ccc2c(-c3nc(C4=CCN(C5CCCN(C)C5)C4)c[nH]3)n[nH]c2c1F (stereo not drawn) [Example 223] | A (A represents a pKi value ≥10 (Ki≤0.1 nM)) | 0.1 to 1 | 1 to 10 | 0.1 to 1 | 10 to 31.6 | – | – |
| CCc1cc(O)ccc1-c1ccc2c(-c3nc(C4=CCN(C5CCN(C)CC5)C4)c[nH]3)n[nH]c2c1 [Example 199] | A (A represents a pKi value ≥10 (Ki≤0.1 nM)) | – | 0.1 to 1 | 0.1 to 1 | 3.16 to 10 | – | A (A represents a pKi value ≥10 (Ki≤0.1 nM)) |
| CCc1cc(O)ccc1-c1ccc2c(-c3nc(C4=CCCN(C5CN(C)C5)C4)c[nH]3)n[nH]c2c1F [Example 195] | – | 0.1 to 1 | 1 to 10 | 0.1 to 1 | 31.6 to 100 | 0.1 to 1 | – |
| CCc1cc(O)ccc1-c1ccc2c(-c3nc(C4=CCCN(C5CCN(C)C5)C4)c[nH]3)n[nH]c2c1F (stereo not drawn) [Example 215] | – | 1 to 10 | 1 to 10 | 0.1 to 1 | 31.6 to 100 | 0.1 to 1 | – |
| CCc1cc(O)ccc1-c1ccc2c(-c3nc(C4=CCCN(C(C)C)C4)c[nH]3)n[nH]c2c1F [Example 30] | – | 0.1 to 1 | 1 to 10 | 0.1 to 1 | 10 to 31.6 | 0.1 to 1 | – |
| CCc1cc(O)ccc1-c1ccc2c(-c3nc(C4=CCNCC4C)c[nH]3)n[nH]c2c1 (stereo not drawn) [Example 298] | – | 0.1 to 1 | 0.1 to 1 | 0.1 to 1 | 10 to 31.6 | 0.1 to 1 | – |
| CCc1cc(O)ccc1-c1ccc2c(-c3nc(C4=CCN(C5CCN(C)C5)C4)c[nH]3)n[nH]c2c1F (stereo not drawn) [Example 219] | A (A represents a pKi value ≥10 (Ki≤0.1 nM)) | 0.1 to 1 | 0.1 to 1 | 0.1 to 1 | 10 to 31.6 | – | – |
| CCc1cc(O)ccc1-c1ccc2c(-c3nc(C4=CCN(C5CCCN(C)C5)CC4)c[nH]3)n[nH]c2c1F (stereo not drawn) [Example 212] | A (A represents a pKi value ≥10 (Ki≤0.1 nM)) | 0.1 to 1 | 1 to 10 | 0.1 to 1 | 10 to 31.6 | – | – |
| CCc1cc(O)ccc1-c1ccc2c(-c3nc(C4=CCN(CCSC)CC4)c[nH]3)n[nH]c2c1F [Example 81] | A (A represents a pKi value ≥10 (Ki≤0.1 nM)) | 0.1 to 1 | 1 to 10 | 0.1 to 1 | 31.6 to 100 | – | – |
| CCc1cc(O)ccc1-c1ccc2c(-c3nc(C4=CCCN(C5CCNC5)C4)c[nH]3)n[nH]c2c1F (stereo not drawn) [Example 214] | A (A represents a pKi value ≥10 (Ki≤0.1 nM)) | 0.1 to 1 | 10 to 100 | 0.1 to 1 | 316 to 1000 | – | – |
| CCc1cc(O)ccc1-c1ccc2c(-c3nc(C4=CCCN(C[C@@H]5COCCN5)C4)c[nH]3)n[nH]c2c1F [Example 196] | – | 1 to 10 | 10 to 100 | 0.1 to 1 | 31.6 to 100 | 0.1 to 1 | – |
| CCc1cc(O)ccc1-c1ccc2c(-c3nc(C4=CCN(S(=O)(=O)C5CNC5)CC4)c[nH]3)n[nH]c2c1 [Example 175] | – | 0.1 to 1 | 1 to 10 | 0.1 to 1 | 31.6 to 100 | 0.1 to 1 | – |
| CCc1cc(O)ccc1-c1ccc2c(-c3nc(C4=CCN(C5COC5)C4)c[nH]3)n[nH]c2c1F [Example 75] | – | 0.1 to 1 | 1 to 10 | 0.1 to 1 | 10 to 31.6 | 0.1 to 1 | – |
| CCc1cc(O)ccc1-c1ccc2c(-c3nc(C4=CC(CC)NC4)c[nH]3)n[nH]c2c1F (stereo not drawn) [Example 321] | – | 0.1 to 1 | 1 to 10 | 0.1 to 1 | 10 to 31.6 | 0.1 to 1 | – |
| CCc1cc(O)ccc1-c1ccc2c(-c3nc(C4=CC[C@@H](C)NC4)c[nH]3)n[nH]c2c1 [Example 231] | A (A represents a pKi value ≥10 (Ki≤0.1 nM)) | 0.1 to 1 | 1 to 10 | 0.1 to 1 | 3.16 to 10 | – | – |
| CCc1cc(O)ccc1-c1ccc2c(-c3nc(C4=CCN(C[C@@H]5COCCN5)CC4)c[nH]3)n[nH]c2c1F [Example 189] | – | 0.1 to 1 | 1 to 10 | 0.1 to 1 | 10 to 31.6 | 0.1 to 1 | – |
| CCc1cc(O)ccc1-c1ccc2c(-c3nc(C4=CCN(C[C@@H]5COCCN5)C4)c[nH]3)n[nH]c2c1F [Example 205] | – | 0.1 to 1 | 1 to 10 | 0.1 to 1 | 10 to 31.6 | 0.1 to 1 | – |
| CCc1cc(O)ccc1-c1ccc2c(-c3nc(C4=CCN(C5CCNC5)CC4)c[nH]3)n[nH]c2c1F (stereo not drawn) [Example 207] | A (A represents a pKi value ≥10 (Ki≤0.1 nM)) | 0.1 to 1 | 1 to 10 | 0.1 to 1 | 100 to 316 | – | – |
| CCc1cc(O)ccc1-c1ccc2c(-c3nc(C4=CCCN(CCCO)C4)c[nH]3)n[nH]c2c1 [Example 42] | A (A represents a pKi value ≥10 (Ki≤0.1 nM)) | – | 1 to 10 | 0.1 to 1 | 3.16 to 10 | – | A (A represents a pKi value ≥10 (Ki≤0.1 nM)) |
| CCc1cc(O)ccc1-c1ccc2c(-c3nc(C4=CCN(CCN5CCOCC5)CC4)c[nH]3)n[nH]c2c1F [Example 191] | A (A represents a pKi value ≥10 (Ki≤0.1 nM)) | – | 1 to 10 | 0.1 to 1 | 10 to 31.6 | – | A (A represents a pKi value ≥10 (Ki≤0.1 nM)) |
| CCc1cc(O)ccc1-c1ccc2c(-c3nc(C4=CCCN(C5COC5)C4)c[nH]3)n[nH]c2c1F [Example 70] | – | 1 to 10 | 10 to 100 | 0.1 to 1 | 31.6 to 100 | 0.1 to 1 | – |
| CCc1cc(O)ccc1-c1ccc2c(-c3nc(C4=CCN(C)CC4)c[nH]3)n[nH]c2c1 [Example 19] | A (A represents a pKi value ≥10 (Ki≤0.1 nM)) | – | 0.1 to 1 | 0.1 to 1 | 3.16 to 10 | – | A (A represents a pKi value ≥10 (Ki≤0.1 nM)) |
| CCc1cc(O)ccc1-c1ccc2c(-c3nc(C4=CCN(CCN(C)C)CC4)c[nH]3)n[nH]c2c1F [Example 209] | A (A represents a pKi value ≥10 (Ki≤0.1 nM)) | 0.1 to 1 | 1 to 10 | 0.1 to 1 | 10 to 31.6 | – | – |
| CCc1cc(O)ccc1-c1ccc2c(-c3nc(C4=CCN(CCO)C4)c[nH]3)n[nH]c2c1 [Example 50] | A (A represents a pKi value ≥10 (Ki≤0.1 nM)) | – | 0.1 to 1 | 0.1 to 1 | 3.16 to 10 | – | A (A represents a pKi value ≥10 (Ki≤0.1 nM)) |
| CCc1cc(O)ccc1-c1ccc2c(-c3nc(C4=CCN(CC)CC4)c[nH]3)n[nH]c2c1F [Example 23] | – | 0.1 to 1 | 1 to 10 | 0.1 to 1 | 3.16 to 10 | 0.1 to 1 | – |
| CCc1cc(O)ccc1-c1ccc2c(-c3nc(C4=CCN(CCO)C4)c[nH]3)n[nH]c2c1F [Example 53] | A (A represents a pKi value ≥10 (Ki≤0.1 nM)) | – | 1 to 10 | 0.1 to 1 | 3.16 to 10 | – | A (A represents a pKi value ≥10 (Ki≤0.1 nM)) |
